# Experimental data published in patent publication US20240352121A1, “LAIR-1 AGONISTIC ANTIBODIES AND METHODS OF USE THEREOF” (NEXTCURE, INC., priority 2023, published 2024).
# Test system: SHP-1
# Experiment: SHP-1 phosphorylation in primary patient AML blasts (Western blot)
# Assay type: cell-based, human
# Conditions: collagen alone
# Method: FIGS. 4A-4O show the collagen matrix is vital to LAIR-1 induced AML cell death. (FIGS. 4A-C). Flow cytometry quantification of primary live, dead, or apoptotic total blood leukocytes after ex vivo treatment with 10 μg/mL IgG isotype control (gray) or LAIR-1 mAb (red) in the presence (FIG. 4A) or absence (FIG. 4B) of exogenous collagen, or (FIG. 4C), CD451^Lo SSC^Lo blast cells in the presence of isotype control or LAIR-1 mAb. N=3 technical replicates. […] Each dot represents an individual donor. Red shading highlights surface expression >20000 arbitrary units. Blue shading highlights expression <20000 units. Line represents simple linear regression. […] N=4-7 donors. […] Mean pixel density from Western blotting normalized to isotype control condition and graphed relative to total SHP-1. N=3 technical replicates. […] FIGS. 4M and 4N) 4E-BP1 expression as measured by Lumit assay (FIG. 4M) or cleaved caspase-7 as measured by Western blot (FIG. 4N) of cells treated as shown in FIGS. 4I-4K. […] P values calculated by Student's t test. […]
# For assessment of signaling in healthy cells, human monocytes were isolated from PBMCs from two donors using a StemCell monocyte isolation kit (StemCell, Vancouver, BC). […] Data were quantified using FIJI (NIH, MD).
substance,measurement,value
"collagen: plate-coated human Collagen I, LAIR-1 ligand, mimics an extracellular matrix [reference compound]",pSHP-1 relative to control,limited increase
